Among the test systems are SK-OV-3 ovarian; NCI-H226 lung; DU-145 prostate; A498 renal; HS 578T breast; SF-539 CNS; KM12 colon; A549 NSCLC; SK-MEL-28 melanoma; MCF7 breast.
Common to all, as to assay: NCI anticancer screen, dose series, 48 h

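Values below derive from 48-hour exposures of cells grown in 96-well plates, with endpoints linearly interpolated between the two concentrations bracketing the appropriate inhibition level. Abbreviation: GI50, concentration required for 50% inhibition of growth. TGI denotes the concentration required for complete inhibition of growth.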 Some results are limits rather than exact numbers.

Consider `S=C1SCN(C2CCCCCCCCCCC2)CN1C1CCCCCCCCCCC1`, for which the TGI in the test with SK-OV-3 ovarian, in the test on NCI-H226 lung, in the test on DU-145 prostate, in the test on A498 renal, in the test on HS 578T breast and in the test on SF-539 CNS was above 100 µM throughout. Moreover, the TGI in the test on KM12 colon, in the test with A549 NSCLC, in the test with SK-MEL-28 melanoma and in the test on MCF7 breast was above 100 µM throughout.

Turning to `COc1ccc2c(c1)c(-c1ccc(-c3cn(C)c4ccc(OC)cc34)o1)cn2C`, the GI50 was above 100 µM with SK-OV-3 ovarian; 23.6 µM with NCI-H226 lung; above 100 µM in the test with DU-145 prostate; above 100 µM with A498 renal; 4200 nM with HS 578T breast; 2470 nM in the test with SF-539 CNS. Moreover, the GI50 was 2730 nM in the test on KM12 colon, 18.4 µM in the test with A549 NSCLC, 14 µM in the test with SK-MEL-28 melanoma and 17.3 µM in the test with MCF7 breast. The TGI with SK-OV-3 ovarian was above 100 µM; in the test with NCI-H226 lung, above 100 µM; with DU-145 prostate it was above 100 µM; in the test on A498 renal it was above 100 µM; in the test on HS 578T breast, 20.1 µM; in the test on SF-539 CNS, 9.27 µM. Further, the TGI in the test on KM12 colon was 7.08 µM; with A549 NSCLC, above 100 µM; with SK-MEL-28 melanoma it was 80.1 µM; with MCF7 breast, above 100 µM.

For `Cc1ccc(-n2c3c(c4c(CN)c(O)ccc42)CCc2ccccc2C3=O)cc1`, the GI50 was 18.1 µM in the test on SK-OV-3 ovarian; 18.2 µM in the test with NCI-H226 lung; 17.7 µM in the test on DU-145 prostate; 4.17 µM in the test with A498 renal; 456 nM in the test on HS 578T breast; 16600 nM with SF-539 CNS. The GI50 with KM12 colon is 13200 nM; in the test with A549 NSCLC, 18.7 µM; in the test on SK-MEL-28 melanoma, 23.4 µM; with MCF7 breast, 17.3 µM. For the same compound, the TGI in the test on SK-OV-3 ovarian turned out to be 34.4 µM; in the test with NCI-H226 lung, 36.6 µM; with DU-145 prostate it was 41.7 µM; in the test on A498 renal, 16.8 µM; in the test on HS 578T breast it was 5.03 µM; with SF-539 CNS, 36.1 µM. The TGI is 29.1 µM in the test on KM12 colon, 35.8 µM in the test on A549 NSCLC, 69.4 µM in the test on SK-MEL-28 melanoma and above 100 µM in the test with MCF7 breast.

Turning to `O=S(=O)(NCCNc1cc(-c2cn(-c3ccccc3)nc2-c2cccc(O)c2)ccn1)c1ccc(Br)cc1`, the GI50 was 3.59 µM with SK-OV-3 ovarian; 3.15 µM in the test on NCI-H226 lung; 3.02 µM in the test on DU-145 prostate; 1.45 µM in the test on A498 renal; 2350 nM in the test on HS 578T breast; 1810 nM in the test with SF-539 CNS. Further, the GI50 in the test with KM12 colon is 2590 nM; with A549 NSCLC it was 3.6 µM; with SK-MEL-28 melanoma, 2.09 µM; in the test on MCF7 breast, 2.33 µM. Besides, the TGI with SK-OV-3 ovarian was found to be 14.5 µM; in the test with NCI-H226 lung it was 15 µM; in the test on DU-145 prostate, 11.6 µM; with A498 renal, 5.47 µM; with HS 578T breast, 7.71 µM; with SF-539 CNS, 4.24 µM. Also, the TGI with KM12 colon worked out at 7.95 µM; with A549 NSCLC, 15 µM; with SK-MEL-28 melanoma it was 4.78 µM; in the test with MCF7 breast it was 6.91 µM.

Regarding `CN1CCN(Cc2ccc(NC(=O)c3cccc(C#Cc4c(N)ncc5ccc(F)cc45)c3)cc2C(F)(F)F)CC1`, the GI50 in the test with SK-OV-3 ovarian is 1.19 µM; in the test with NCI-H226 lung, 0.265 µM; with DU-145 prostate, 0.838 µM; in the test on A498 renal, 0.578 µM; in the test with HS 578T breast it was 627 nM; in the test with SF-539 CNS it was 548 nM. Further, the GI50 was 121 nM in the test with KM12 colon, 0.877 µM in the test with A549 NSCLC, 0.79 µM in the test on SK-MEL-28 melanoma and 0.768 µM in the test on MCF7 breast. The TGI was found to be 2.99 µM in the test on SK-OV-3 ovarian; 2.7 µM in the test with NCI-H226 lung; 1.59 µM in the test on DU-145 prostate; 1.26 µM in the test with A498 renal; 1.97 µM in the test with HS 578T breast; 1.19 µM in the test on SF-539 CNS. The TGI is 0.754 µM in the test on KM12 colon, 1.77 µM with A549 NSCLC, 1.53 µM with SK-MEL-28 melanoma and 1.53 µM with MCF7 breast.

Regarding `COCC(=O)NC/C=C/c1ccc2ncnc(Nc3ccc(Oc4ccc(C)nc4)c(C)c3)c2c1`, the GI50 with SK-OV-3 ovarian is 0.295 µM; with NCI-H226 lung it was 14.8 µM; in the test with DU-145 prostate, 9.54 µM; in the test on A498 renal, 4.13 µM; in the test on HS 578T breast it was 17200 nM; with SF-539 CNS it was 15100 nM. Moreover, the GI50 with KM12 colon was 18700 nM; in the test on A549 NSCLC, 13.8 µM; with SK-MEL-28 melanoma, 12.9 µM; in the test with MCF7 breast, 4.11 µM. For the same compound, the TGI in the test with SK-OV-3 ovarian is 4.52 µM; in the test on NCI-H226 lung, 69.3 µM; with DU-145 prostate, above 100 µM; with A498 renal, 32.6 µM; in the test on HS 578T breast, 56.1 µM; in the test with SF-539 CNS it was 31.7 µM. Further, the TGI in the test with KM12 colon is 53 µM; with A549 NSCLC, above 100 µM; in the test with SK-MEL-28 melanoma it was 30.6 µM; in the test on MCF7 breast, 32.5 µM.

Take `Clc1nc(-c2ccccc2)nc(Cl)c1Cl`: the TGI in the test with SK-OV-3 ovarian turned out to be 27 µM; in the test with NCI-H226 lung it was 28.1 µM; in the test with DU-145 prostate it was 29.9 µM; in the test on A498 renal, 31.5 µM; in the test on HS 578T breast, 47.3 µM; in the test on SF-539 CNS, 33.9 µM. Moreover, the TGI came out at 25.3 µM in the test with KM12 colon, 33.1 µM with A549 NSCLC, 31.6 µM with SK-MEL-28 melanoma and 24.5 µM with MCF7 breast.

The record behind these values is PubChem BioAssay (NCI).
